For this data set the following is noted: Ring tensiometer.

Each structure is given as a SMILES string. Numbers after ± are expanded uncertainties.

The term surface tension liquid-gas denotes the force per length acting along the surface. For the compound `CCCCCCCCC` [nonane], the surface tension liquid-gas reads like this: (293.15 K) 23.04 ± 0.37 mN/m; (298.15 K) 22.49 ± 0.36 mN/m; (303.15 K) 22.04 ± 0.35 mN/m; (308.15 K) 21.49 ± 0.35 mN/m; (313.15 K) 20.94 ± 0.34 mN/m; (318.15 K) 20.47 ± 0.33 mN/m. In addition, where the note is “323.15 K”, the surface tension liquid-gas was found to be 19.98 ± 0.33 mN/m.
`CCCCCCC` [heptane]: the surface tension liquid-gas is recorded as 20.05 ± 0.33 mN/m (293.15 K); 19.54 ± 0.32 mN/m (298.15 K); 19.1 ± 0.32 mN/m (303.15 K); 18.58 ± 0.31 mN/m (308.15 K); 18.08 ± 0.3 mN/m (313.15 K); 17.6 ± 0.3 mN/m (318.15 K). Moreover, the surface tension liquid-gas (323.15 K) came out at 17.06 ± 0.29 mN/m.
With `OC1CCCCC1` [cyclohexanol], the surface tension liquid-gas is recorded as 33.15 ± 0.49 mN/m (293.15 K); 32.74 ± 0.49 mN/m (298.15 K); 32.35 ± 0.48 mN/m (303.15 K); 31.91 ± 0.48 mN/m (308.15 K); 31.58 ± 0.47 mN/m (313.15 K); 31.13 ± 0.47 mN/m (318.15 K). For the same compound, under “323.15 K”, the surface tension liquid-gas is listed as 30.78 ± 0.46 mN/m.
